Series [1] addresses T1, trypsin-like activity of the 26S proteasome (Homo sapiens, UniProt Q99436).
T1 construct: endogenous in cells; host or cells: Jurkat (ATCC TIB-152, E6-1 clone) cell lysate
T1 sequence (Q99436 44-277): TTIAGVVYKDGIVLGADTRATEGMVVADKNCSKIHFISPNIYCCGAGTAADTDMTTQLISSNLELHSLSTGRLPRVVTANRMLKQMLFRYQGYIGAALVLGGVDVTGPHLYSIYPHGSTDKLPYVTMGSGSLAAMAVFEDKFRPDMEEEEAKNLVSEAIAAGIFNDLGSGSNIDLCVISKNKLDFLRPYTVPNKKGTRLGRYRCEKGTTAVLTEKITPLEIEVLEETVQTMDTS
Kind of series: Proteasome assay, trypsin-like (T-L) activity, SUC-RLR-AMC, Jurkat cell lysate. The conditions noted are these: Table 2, P1 analogues; ± S.D.; read-out: Proteasome Inhibition T-L-like IC50. It counts as biochemical. As for the experimental part:
The lysate was stored at −80° C. until the sample was used for the proteasome assay.
The compounds were diluted with lysis buffer; 10 μL of the compound-containing solution was added to the test wells at ten times the final concentration. […] The results are reported as the average of at least 3 technical replicates of IC50 values for proteasome inhibition.

The target in series [2] is T2, ChT-L activity of 26S proteasomes in intact MCF-7 cells (Homo sapiens, UniProt P28074).
T2 construct: endogenous in cells; host or cells: MCF7 cells (treated intact, then lysed)
T2 sequence (P28074 60-263): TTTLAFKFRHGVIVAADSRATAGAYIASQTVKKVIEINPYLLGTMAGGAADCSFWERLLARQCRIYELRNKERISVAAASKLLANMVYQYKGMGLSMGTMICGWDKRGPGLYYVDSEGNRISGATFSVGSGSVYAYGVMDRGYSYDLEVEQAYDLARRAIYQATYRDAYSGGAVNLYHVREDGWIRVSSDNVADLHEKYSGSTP
Kind of series: Cell infiltration of PIs: proteasome inhibition in intact MCF7 cells. It counts as cell-based. The note with it: intact MCF-7 cells treated, washed, lysed. The protocol:
100 μL MCF7 cells at a concentration of 500,000 cells/mL were added to a 96 well microtiter plate and incubated overnight at 37° C. and 5% CO2 to allow cells to adhere at 100% confluency. The cells were treated and then incubated for at 37° C. and 5% CO2 for 1 hour as a standard time to allow for drug infiltration. […] The plate was rocked on ice for 1 hr and then 90 μL of cell lysate was transferred to a black 96 well microtiter plate. 10 μL of lysis buffer was added to the top of all wells containing treated cells and one set of control wells. 10 μL of 1 mM of compound 8 was added to the second set of control wells as a positive control for proteasome inhibition. The plate was then incubated at 37° C. for 15 minutes to allow for control drug binding. Chymotrypsin-like activity was then measured by adding 10 μL of 100 μM Suc-LLVY-AMC in lysis buffer to each well and then incubating for 1 h at 37° C. […] Standard deviation for cell infiltration was calculated by propagating the error from the two IC50 values.
The difference between proteasome inhibition within intact versus lysed cells was evaluated as a representative measure of PIs ability to infiltrate cells and access intracellular proteasomes. […] Assays were performed in biological triplicate, and the data points are reported with the corresponding standard deviations. […]

Series [3] has as its target T3, ChT-L activity of the 26S proteasome (Homo sapiens, UniProt P28074).
T3 sequence (P28074 60-263): T2 sequence (P28074 60-263)
The experiment in a line: Proteasome inhibition after pre-incubation with newborn bovine serum. It counts as in vitro ADME. The note with it: pre-incubation 1 hour at 37° C. with NBS. The protocol: EDTA chelates divalent metal ions. By including EDTA during the pre-incubation step, EDTA protected compound 8 from being deactivated by NBS, shown by low proteasome activity below 5 nM of compound 8.
The assays were performed in biological triplicate, and the data points are reported with the corresponding standard deviations.

For series [4], the system named is ubiquitinated proteins in MCF7 cells. The experiment in a line: Western blot of ubiquitinated proteins. It counts as cell-based, human. The protocol: The cells were incubated for 9.5 hrs at 37° C. and 5% CO2. After washing with PBS twice, cells were scraped, pelleted and lysed with CytoBuster™ Protein Extraction Reagent \ containing 10 μM compound 8, 10 μM Na3VO4, 0.017 mg/mL Aprotinin, 1 mM PMSF, and 1% Protease Inhibitor Cocktail. Thereafter 30 μg of protein in sample buffer (50 mM Tris-HCl, 2% SDS, 10% Glycerol, 1% β-mercaptoethanol, 12.5 mM EDTA, 0.02% Bromophenol Blue, pH 6.8) that had been boiled at 90° C. for 5 min, was electrophoresed using 6/8% SDS-PAGE, and the protein transferred to a […] PVDF membrane using a BioRad Trans-Blot® SD at 15 V for 17 minutes. The membrane was blocked with 1× casein buffer (Diluted 1:10 in water from casein blocking buffer 10×), and probed with either the polyclonal rabbit anti β-Actin (1:500) or the polyclonal rabbit anti-ubiquitin antibody (1:300), and stained with goat anti-rabbit IgG (H+L) HRP conjugate (1:3000) secondary antibodies. Antibody-recognized bands were visualized by a standard horseradish peroxidase chemiluminescent assay with an ECL kit.

Series [5] has as its system Jurkat cells. Kind of series: Cell cycle assay (flow cytometry). It counts as cell-based, human. As for the experimental part:
Vybrant® DyeCycle™ Orange Stain was used for the cell cycle assay. The amount of fluorescence of DNA was used as a relative measure of a cell's stage in the cell cycle. 500,000 Jurkat cells were added to wells on a 24 well microtiter plate in 1 mL of supplemented RPMI media. The cells were then treated with Compound 1 (TABLE 2). Using the cells treated for 12 and 24 hours, stained DNA fluorescence was measured via flow cytometry. The cells were taken from each well, pelleted briefly, aspirated, resuspended in 300 μL of 2 μL/mL Vybrant® DyeCycle™ Orange Stain, incubated at 37° C. for 15 minutes, and analyzed by flow cytometry. Selecting whole cells based on forward and side scatter, stained DNA fluorescence was excited at 488 nm and measured at an emission wavelength of 585 nm, using amount of fluorescence as a means of distinguishing between populations of cells. Populations were identified as G1 for the peak associated with the lowest amount of fluorescence, S phase for increased fluorescence appearing as a shoulder off of the G1 peak, and G2/M for approximately 2 times the fluorescence as the G1 peak. Measurements were taken in biological triplicate and confirmed in technical triplicate.
In general terms: A flow cytometer gives signals particle by particle.

Series [6] has as its system MCF7 cells. Kind of series: MTT assay cytotoxicity MCF7. The note with it: Homo sapiens. In general terms: Formazan colour is commonly taken as a measure of viable cells.
Procedure: (§1) The cells were incubated at 37° C. in a humidified atmosphere with 5% CO2.
(§2) 100 μL of cells were added to each well of a 96 well microtiter plate at a concentration of 4×10^4 cells/mL and incubated overnight to allow proper adhesion. (RPMI 8226 cells were plated at 4×10^5 cells/mL). The cells were treated with the panel of test compounds at a series of concentrations, along with vehicle control DMSO and untreated cells as controls. After 48 h incubation, 20 μL of MTT reagent (3-(4,5-dimethylthiazol-2-yl)-2,5-diphenyltetrazolium bromide) in PBS (5 mg/mL) was added to each well of the plates. The plate was incubated for 2 h at 37° C. For adherent cell lines, the media was removed from each well of the plate and the resulting formazan crystals dissolved in 100 μL of DMSO. For RPMI 8226 cells, 200 ul of DMF/SDS mix (50% DMF. 10% w/v SDS pH<4) was used to solubilize the formazan crystals. Optical density (OD) at 490 nm was measured using a microplate reader. Cells treated with 1 μM phenyl arsine oxide (PAO) served as a positive cell-killing control. Technical replicates of these assays were performed in biological quadruplicate, and the three best values were used for analysis in order to eliminate outliers. Data presented are the average IC50 value calculated from at least 3 technical replicates with the corresponding standard deviation.
In series [7] the test system is RPMI 8226 cells. Kind of series: MTT assay cytotoxicity RPMI 8226. The conditions noted are these: Homo sapiens.
Procedure: as §1, §2
In series [8] the test system is MDA-MB-231 cells. The experiment in a line: MTT assay cytotoxicity MDA-MB-231. The note with it: Homo sapiens.

The structures appear in SMILES notation. Like-named read-outs stand apart in the source and are kept apart here.

A word on the IC50: it is the concentration that inhibits the measured activity by half. With `CC[C@H](C)[C@@H]1C(=O)O[C@H]1C(=O)N[C@H](C(=O)N[C@H](C(=O)OCc1ccccc1)C(C)C)C(C)C` [Compound 8, Benzyl ((2R,3S)-3-((S)-sec-butyl)-4-oxooxetane-2-carbonyl)-L-valyl-L-valinate], the IC50 in series [1] was found to be 1520 ± 788 nM; in series [6] (MCF7, 48 h, read-out: Cytotoxicity MCF7 IC50), 1410 ± 687 nM; in series [6] (MCF7, read-out: Cytotoxicity MCF7 IC50), 1850 ± 261 nM; in series [7] (RPMI-8226, 48 h, read-out: Cytotoxicity RPMI 8226 IC50), 201 ± 82 nM; in series [7] (RPMI-8226, read-out: Cytotoxicity RPMI 8226 IC50) it was 192 ± 32.3 nM; in series [8] (MDA-MB-231, 48 h, read-out: Cytotoxicity MDA-MB-231 IC50), 359 ± 72 nM. Besides, in series [8] (MDA-MB-231, read-out: Cytotoxicity MDA-MB-231 IC50), the IC50 was 380 ± 18.8 nM. In addition, in series [2], the “times more active than compound 1, proteasome inhibition in intact cells” value was “approximately 10 times”. Moreover, the “deactivation by newborn bovine serum” value in series [3] was “deactivates compound 8”. Moreover, in series [4], the “accumulation of ubiquitinated proteins” value is “accumulation of ubiquitinated proteins”. In series [5], the cell cycle arrest entry is reported as “cell cycle arrest in the G2/M phase”.

Source of the values: patent publication US11396497B2, “Proteasome inhibitors” (New Mexico Tech University Research Park Corporation, priority 2018, dated 2022).
